Data on seven molecules can be found in ChEMBL document CHEMBL1154209, “Triple recognition of B-DNA” (Bioorg Med Chem Lett, 2009).

The source made the active and inactive calls. The calls are words filed in the database; no cut-off is given here.

What all share (assay type): nucleic-acid assay
For experiment [1], the system named is Nucleic Acid. Put plainly: Binding affinity to duplex DNA dA22.dT22 assessed as change in melting temperature at 3 uM by UV analysis at 260 nm.
Experiment [2] concerns Nucleic Acid. Briefly: Binding affinity to duplex DNA polydA:polydT assessed as increase of CD signal at 360nm and at 200 uM compound concentration.
Experiment [3] relates to Nucleic Acid. Briefly: Binding affinity to duplex DNA polydA:polydT assessed as decrease in viscosity at 200 uM.

One may read the ΔTm as the shift of the melting midpoint relative to a reference. Consider `CN1CCN(c2ccc3[nH]c(-c4ccc5[nH]c(-c6ccc(OCCOCCOCCN(CCOCCOCCN)C(=O)CCCc7ccc8ccc9cccc%10ccc7c8c9%10)cc6)nc5c4)nc3c2)CC1`, for which the ΔTm in the experiment on Nucleic Acid [1] is 16 °C.

With `Nc1ccc2ccc3cccc4ccc1c2c34`, in the experiment on Nucleic Acid [1], the thermal shift (ΔTm) came to 2 °C. As for `CN1CCN(c2ccc3[nH]c(-c4ccc5[nH]c(-c6ccc(OCCOCCOCCOCCOCCOCCNC(=S)NCCSCC[C@H]7O[C@@H](O[C@H]8[C@H](O)[C@@H](N)C[C@@H](N)[C@@H]8O[C@H]8O[C@H](CN)[C@@H](O)[C@H](O)[C@H]8N)[C@H](O)[C@@H]7O[C@@H]7O[C@H](CN)[C@H](O)[C@@H](O)[C@@H]7N)cc6)nc5c4)nc3c2)CC1`, the result in the experiment with Nucleic Acid [2] and with Nucleic Acid [3] was Active. Moreover, in the experiment with Nucleic Acid [1], the ΔTm is 24 °C. With `CN1CCN(c2ccc3[nH]c(-c4ccc5[nH]c(-c6ccc(O)cc6)nc5c4)nc3c2)CC1`, in the experiment with Nucleic Acid [1], the ΔTm worked out at 22 °C. For `NC[C@H]1O[C@@H](O[C@H]2[C@@H](O)[C@H](O[C@H]3[C@H](O)[C@@H](N)C[C@@H](N)[C@@H]3O[C@H]3O[C@H](CN)[C@@H](O)[C@H](O)[C@H]3N)O[C@@H]2CCSCCNC(=S)NCCOCCOCCNC(=O)CCCc2ccc3ccc4cccc5ccc2c3c45)[C@@H](N)[C@H](O)[C@H]1O`, the ΔTm with Nucleic Acid [1] came to 5 °C. As to `CN1CCN(c2ccc3[nH]c(-c4ccc5[nH]c(-c6ccc(OCCOCCOCCN(CCOCCOCCNC(=S)NCCSCC[C@H]7O[C@@H](O[C@H]8[C@H](O)[C@@H](N)C[C@@H](N)[C@@H]8O[C@H]8O[C@H](CN)[C@@H](O)[C@H](O)[C@H]8N)[C@H](O)[C@@H]7O[C@@H]7O[C@H](CN)[C@H](O)[C@@H](O)[C@@H]7N)C(=O)CCCc7ccc8ccc9cccc%10ccc7c8c9%10)cc6)nc5c4)nc3c2)CC1`, the result with Nucleic Acid [2] and in the experiment with Nucleic Acid [3] was Active. For the same molecule, in the experiment with Nucleic Acid [1], the ΔTm worked out at 35 °C. As for `NC[C@@H]1O[C@H](O[C@H]2[C@@H](O)[C@H](O[C@@H]3[C@@H](O)[C@H](N)C[C@H](N)[C@H]3O[C@H]3O[C@H](CN)[C@@H](O)[C@H](O)[C@H]3N)O[C@@H]2CO)[C@H](N)[C@@H](O)[C@@H]1O`, in the experiment on Nucleic Acid [1], the ΔTm turned out to be 0 °C.
